In patent US12702135B2, “Mitigation of ammonia, odor and greenhouse gases” (Syddansk Universitet, priority 2019, dated 2026):
Several values for one entry are separate records, joined by “and”; a condition that tells them apart may be missing. Equal entries are not always repeated.

Key:
pig manure slurry [1] = assay: total ammoniacal nitrogen (Kjeldahl) in fresh pig manure slurry
Procedure: (§1) Total ammoniacal nitrogen (TAN) was measured in pig manure slurry using the Kjeldahl method. This method consists of adding 32% NaOH to the manure slurry sample in order to turn all NH4^+ in the sample to NH3. The sample is then heated in a closed system causing the NH3 to evaporate into a trap containing H3BO3 forming NH4[B(OH)4]. The remaining acid is then back-titrated with dilute HCl to give the concentration.
(§2) The pig manure slurry was made fresh on the day of measurement by mixing 10 g of feces with 30 ml of urine. Vials of approximately 4.5 ml of manure slurry were prepared. To each vial 0.5 ml of appropriate amounts of inhibitors were added. Controls were vials of 4.5 ml manure slurry with 0.5 ml H2O. After mixing inhibitors and pig manure slurry the vials were sealed and incubated at 25° C. with shaking for 5 h. After incubation, the ureolysis reaction was rapidly quenched by addition of 8 ml 32% NaOH before the sample was transferred to the Kjeldahl instrument for measurements.
as §1, with “the manure sample in” for “the manure slurry sample in”
as §2, with “of either 30 mM TA and 10 mM NaF or 50 mM TA and 10 mM NaF was added. Vials containing 0.5 ml” for “of appropriate amounts”, “of either 51 mg/ml MTA (equal to 30 mM TA on a mass basis) or 85 mg/ml MTA (equal to 50 mM TA on a mass basis) with 10 mM TA and 10 mM NaF” for “of inhibitors”, “were also prepared.” for “were added.”, “ml H2O or 10 mM NaF.” for “ml H2O.”
The pig manure slurry was made fresh on the day of measurement by mixing 10 g of feces with 30 ml of urine. Manure separation was simulated by mixing 10 g of feces with 60 ml of urine for a ratio of 1:6 w:V.
For the “normal” ratio or unseparated manure slurry (1:3) 4.5 ml manure was placed in vials. Then 0.5 ml of TA (50 mM) and NaF (10 mM) were added to the manure slurry. For the separated manure slurry (1:6) 4.5 ml were mixed with 0.5 ml of TA (25 mM) and NaF (10 mM).
Controls were vials of 4.5 ml manure slurry with 0.5 ml H2O at either 1:3 or 1:6 w:V ratios of feces:urine. After mixing inhibitors and pig manure slurry the vials were sealed and incubated at 25° C. with shaking for 5 h. After incubation, the ureolysis reaction was rapidly quenched by addition of 8 ml 32% NaOH before the sample was transferred to the Kjeldahl instrument for measurements.
Tannic acid (TA), sodium fluoride (NaF), chlorogenic acid (CA), lignosulfonic acid (LA), lignin (L), chitosan low molecular weight (CLMW), NaOH, HCl and H3BO3 were purchased from Sigma-Aldrich. The mixed tannins (75% tannins) used in this study (VINOFERM TANNOROUGE) were purchased from Brouwland. The product contains tannins from chestnut. The green tea extract was purchased from Slimming Labs (Groeningen, Netherlands) and consists of 90% polyphenols of which 40% are epigallocatechin gallate. Total ammoniacal nitrogen (TAN) was measured in pig manure slurry using the Kjeldahl method as described in example 2 and example 7. The various compounds were tested as described for MTA in example 7 using appropriate concentrations.
Initial screenings were done in duplicate and the results are given as the average of the two measurements with no standard deviation (SD). […]

Klebsiella pneumoniae = assay: pH-based urease activity assay, pure K. pneumoniae culture in M9U minimal medium; type: cell-based, Klebsiella pneumoniae subsp. pneumoniae; conditions: for Reduction in ureolytic activity: pure K. pneumonia culture
Procedure: (§3) The urease stock was stored at −20° C.
All M9U components except glucose, urea, FeCl2, ZnSO4, and vitamins were mixed, the pH adjusted to 6.8 and the medium was autoclaved. Glucose, urea, FeCl2, ZnSO4, and BME Vitamin solution were sterile-filtered and added aseptically after autoclaving. Urea was added within 24 h before the medium was used.
(§4) The assay consists of a buffered urea solution containing the pH indicator phenol red and the inhibitor to be tested. […] Each compound was screened at three concentrations (10×, 100× and 1000× dilutions of the stock) in triplicate against K. pneumoniae and purified JBU. To this solution ureolytic bacteria or urease is added and the solution is incubated in a plate reader which every 15 minutes measure the absorbance at 557 nm and 630 nm (A557 and A630). Thus, inhibitor and bacteria/urease was not pre-incubated. For microbial urease activity experiments, K. pneumoniae and E. coli were grown overnight in the respective growth media. […] To each well 80 μl bacterial suspension, 100 μl growth media, and 20 μl inhibitor solution was added. Increase in absorbance at 557 nm reflects increasing pH (until saturation of the indicator at pH 8.2) and increase in absorbance at 630 nm reflects bacterial growth (optical density). In the case of ureolytic bacteria or enzymes in urea solution the increase in pH can be ascribed to the production of alkaline NH3. […] In the bacterial assay inhibitors were evaluated based on three parameters: maximal or final pH increase, onset of pH increase and rate of pH increase. The relative maximal pH increase was determined as pHmax=A557-A630. The onset of the pH increase was defined as the point where the ureolytic production of NH3 overcame the buffer capacity resulting in a colour change of the phenol red indicator measured as an absorbance increase at 557 nm. […] For each inhibitor the influence on the bacterial growth was also evaluated by identifying the end of the lag phase (onset of exponential growth), the growth rate and the maximal OD630.

[2] = tested on: 12 days old pig manure slurry; assay: methane production in anaerobic inoculum flasks (GC-FID); conditions: 10 mM TA alone, 3 weeks
Procedure: This was done by transferring the TA-NaF treated manure slurry used in example 3 to 100 mL inoculum flasks on day 12. The manure slurry was weighed before inoculation and the headspace was flushed with helium (Linde Group) prior to encapsulation. Gas from the headspace of the inoculum flasks was sampled into 6 mL vacuum sealed exetainer vials (Labco Limited, Lampeter, UK) every week the following three weeks and stored for later CH4 analysis on a GC-FID. After sampling from the inoculum flasks, the pressure in the headspace was equalized with a needle.

jack bean urease = biological target: T1, jack bean urease (Canavalia ensiformis, UniProt P07374); assay: cell-free urease activity assay (pH-based); type: biochemical
T1 construct: purchased Sigma-Aldrich
Procedure: as §3, §4
In urease inhibition assays 5 μl enzyme solution, 175 μl growth media, and 20 μl inhibitor solution were added.

pig manure slurry [3] = assay: headspace ammonia emissions from pig manure slurry (PTR-MS); conditions: Tannic acid 10 mM; cumulated headspace emission, 22-24° C.
Procedure: Ammonia emissions were measured in headspace experiments at ambient temperature (22-24° C.). Pig urine (30 ml) and 10 g of frozen pig feces were thawed and added to each of nine 100 mL reactors and mixed with tannic acid and sodium fluoride in different concentrations. Tannic acid and sodium fluoride was purchased from Sigma-Aldrich. A flow of 0.5 L±10% air/min was continuously applied to the headspace of each reactor with mass flow controllers (Bronkhorst EL-FLOW, Ruurlo, Netherlands). The air flow carried the emitted ammonia from the pig manure slurry in the reactors to a proton transfer reaction mass spectrometer (PTR-MS) (Ionicon Analytik, Innsbruck, Austria) for quantification. A PEEK valve (Bio-Chem Valve Inc., Boonton, NJ, USA) was used to switch between the nine reactors every 12 min. The PTR-MS was operated at a reduced electric field of 142 Townsend (2.15 mbar and 75° C. in the drift tube). Every 24 h, 3 ml of pig urine and 1 g of pig feces was thawed and supplemented to the reactors. Tannic acid and sodium fluoride was also supplemented every 24 h to maintain a constant inhibitor concentration in the manure. For acidification treatment, the manure slurry was acidified with H2SO4 to pH 5.5 every 24 h. The gas emissions were monitored continuously for 12 days. […]

[4] = weak acidity due to the numerous phenol groups; cited from earlier work

T1 sequence (P07374 whole entry, looked up): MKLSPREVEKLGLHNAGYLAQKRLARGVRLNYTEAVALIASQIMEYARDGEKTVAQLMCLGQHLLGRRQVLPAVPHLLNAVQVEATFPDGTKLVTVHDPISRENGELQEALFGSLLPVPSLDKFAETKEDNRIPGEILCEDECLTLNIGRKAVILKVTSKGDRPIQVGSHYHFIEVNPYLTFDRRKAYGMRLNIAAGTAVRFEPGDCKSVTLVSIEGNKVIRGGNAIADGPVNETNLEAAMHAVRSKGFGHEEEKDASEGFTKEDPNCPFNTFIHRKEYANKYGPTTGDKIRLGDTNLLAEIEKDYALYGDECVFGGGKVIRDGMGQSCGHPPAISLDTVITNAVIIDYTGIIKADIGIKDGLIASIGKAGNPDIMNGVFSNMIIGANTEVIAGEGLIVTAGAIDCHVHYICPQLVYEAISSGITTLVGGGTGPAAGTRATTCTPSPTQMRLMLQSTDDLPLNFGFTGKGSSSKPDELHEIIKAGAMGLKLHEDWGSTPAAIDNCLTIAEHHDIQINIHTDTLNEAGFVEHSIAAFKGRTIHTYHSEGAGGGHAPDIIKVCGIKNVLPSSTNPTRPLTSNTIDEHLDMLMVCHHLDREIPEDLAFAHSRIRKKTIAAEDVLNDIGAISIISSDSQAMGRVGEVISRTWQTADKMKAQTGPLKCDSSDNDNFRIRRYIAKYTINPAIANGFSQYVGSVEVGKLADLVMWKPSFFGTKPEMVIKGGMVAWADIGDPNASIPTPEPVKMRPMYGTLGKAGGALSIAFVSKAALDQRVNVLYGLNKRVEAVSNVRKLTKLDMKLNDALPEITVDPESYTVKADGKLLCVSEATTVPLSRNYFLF

## CC(=O)NO [AHA, acetohydroxamic acid]
Pig manure slurry [1]; AHA 0.5 mM, pig manure slurry
  Reduction in ammonia production (Mean): 14% and 14 ± 2.3%
Pig manure slurry [1]; AHA 1 mM, pig manure slurry
  Reduction in ammonia production (Mean): 24 ± 3.4%
Klebsiella pneumoniae; AHA 0.2 mM
  Reduction in ureolytic activity: 14 ± 6%

## O=C1C=CC(=O)N1c1ccccc1 [N-phenylmaleimide]
Pig manure slurry [1]; N-phenylmaleimide 3.9 mM, pig manure slurry, 25° C., 5 h
  Reduction in ammonia production: 59%

## O=C(/C=C/c1ccc(O)c(O)c1)O[C@@H]1C[C@](O)(C(=O)O)C[C@@H](O)[C@H]1O [CA, chlorogenic acid]
Pig manure slurry [1]; CA 5 mM (2.3 mg/ml), pig manure slurry, duplicate, no SD
  Reduction in ammonia production (Mean ± SD): 6%

## O=C(O)CNCC(=O)O [Iminodiacetic acid]
Pig manure slurry [1]; Iminodiacetic acid 0.8 mM, pig manure slurry, 25° C., 5 h
  Reduction in ammonia production: 19%

## NCCS [Cysteamine]
Pig manure slurry [1]; Cysteamine 1 mM, pig manure slurry, 25° C., 5 h
  Reduction in ammonia production: 25%

## O=C(OC[C@H]1O[C@@H](OC(=O)c2cc(O)c(O)c(OC(=O)c3cc(O)c(O)c(O)c3)c2)[C@H](OC(=O)c2cc(O)c(O)c(OC(=O)c3cc(O)c(O)c(O)c3)c2)[C@@H](OC(=O)c2cc(O)c(O)c(OC(=O)c3cc(O)c(O)c(O)c3)c2)[C@@H]1OC(=O)c1cc(O)c(O)c(OC(=O)c2cc(O)c(O)c(O)c2)c1)c1cc(O)c(O)c(OC(=O)c2cc(O)c(O)c(O)c2)c1 [Tannic acid, tannic acid]
Pig manure slurry [1]; TA 3 mM, pig manure slurry (Example 11)
  Reduction in ammonia production (Mean): 0 ± 4%
Pig manure slurry [1]; TA 5 mM (8.5 mg/ml), pig manure slurry (Example 10)
  Reduction in ammonia production (Mean ± SD): 18 ± 1.3%
Pig manure slurry [1]; TA 5 mM, pig manure slurry (Example 11)
  Reduction in ammonia production (Mean): 18 ± 1.3%
Pig manure slurry [1]; Tannic acid 10 mM, pig manure slurry, 25° C., 5 h (Example 2)
  Reduction in ammonia production: 17.6%^
Pig manure slurry [1]; in solution, Tannic acid 5 mM, pig manure slurry, 25° C., 5 h (Example 3)
  Reduction in ammonia production: 17.6%
Pig manure slurry [1]; in solution, Tannic acid 10 mM, pig manure slurry, 25° C., 5 h (Example 3)
  Reduction in ammonia production: 35.2%
[2]
  methane production, % of the uninhibited control (FIG. 3B): 0.01%
Jack bean urease; 0.1 mM
  pH change (reduced to): 0
Klebsiella pneumoniae; Klebsiella pneumoniae, 1.0 mM, read-out: reduction of ureolytic activity (pH change) relative to uninhibited control
  inhibition at 1000 µM: 21.3 ± 1.3%
Klebsiella pneumoniae; TA 0.05 mM, listed as TA
  Reduction in ureolytic activity: 16% and 16 ± 5%
Klebsiella pneumoniae; TA 0.1 mM
  Reduction in ureolytic activity: 9.4 ± 3%
Klebsiella pneumoniae; TA 0.2 mM
  Reduction in ureolytic activity: 3.9 ± 6%
Klebsiella pneumoniae; tannic acid 0-0.8 mM alone
  inhibition of ureolytic activity: 0-12%
Klebsiella pneumoniae; tannic acid alone up to 0.8 mM
  ureolytic pH change compared to the uninhibited control (FIG. 5): does not reduce the pH change significantly
Pig manure slurry [3]
  Reduction in ammonia emissions, 12 days: 88.4%
[4]
  pKa: around 6

## [F-].[Na+] [NaF, sodium fluoride]
Pig manure slurry [1]; 1 mM NaF, pig manure slurry, 25° C., 5 h (Example 7)
  Reduction in concentration of NH3: 17.7 ± 4%.
Pig manure slurry [1]; NaF 1 mM, pig manure slurry (Example 10)
  Reduction in ammonia production (Mean ± SD): 9 ± 1.0%
Pig manure slurry [1]; NaF 1 mM, pig manure slurry (Example 11)
  Reduction in ammonia production (Mean): 9 ± 1.0%
Pig manure slurry [1]; NaF 1 mM, pig manure slurry, 25° C., 5 h (Example 2)
  Reduction in ammonia production: 24%
Pig manure slurry [1]; in solution, NaF 1 mM, pig manure slurry, 25° C., 5 h (Example 3)
  Reduction in ammonia production: 8.6%
Jack bean urease; 1.0 mM
  reduction in initial rate of pH change: 89.4±1.0%
  reduction of pH change: 80.6±3.0%
Klebsiella pneumoniae; 0.3 mM fluoride alone
  inhibition of ureolysis: 14.7%
Klebsiella pneumoniae; 1.0 mM
  ureolytic activity (pH change) relative to the uninhibited control: 0
Klebsiella pneumoniae; NaF 0.3 mM
  reduction of pH change (FIG. 5): 12-15%
